Converted amounts (≈) assume the structure as drawn. Like-named read-outs stand apart in the source and are kept apart here.
Assays:
E. coli CFT073 (UPEC) = assay: MIC, standard microdilution assay, growing UPEC; type: cell-based, Escherichia coli
In short: (§1)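 Broth microdilution was used throughout. UPEC, P. aeruginosa and S. aureus were tested in CA-MHB buffered with 40 mM HEPES (pH 7.4); UPEC was additionally tested in LPM with 30 mM MES (pH 5.5). S. flexneri was grown in TSB. All determinations were run in triplicate.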

P. aeruginosa DSM1117 = assay: MIC, standard microdilution assay, growing P. aeruginosa; type: cell-based, Pseudomonas aeruginosa; details: P. aeruginosa
In short: as §1

S. aureus DSM2569 = assay: MIC, standard microdilution assay, growing S. aureus; type: cell-based, Staphylococcus aureus; details: S. aureus, CA-MHB pH 7.4, read-out: MIC (μM) CA-MHB
In short: as §1

[1] = test system: non-growing P. aeruginosa DSM1117; assay: Dilution-regrowth assay (OD600, start-growth-time) on stationary-phase P. aeruginosa; type: cell-based, Pseudomonas aeruginosa; details: P. aeruginosa; for EC50: regrowth delay of non-growing bacteria, 1:4 CA-MHB pH 7.4, 24 h treatment, OD600 8 h after dilution, read-out: EC50; for Regrowth: OD600 after dilution into drug-free medium (mean): OD600 at 6h or 8h; for Regrowth, OD600 at 6h or 8h after dilution into drug-free medium: average
Description: To determine the spectrum of activity of the compounds that were effective against non-growing UPEC, we further assessed their efficacy against the well-characterized Gram-negative and Gram-positive reference strains P. aeruginosa DSM1117 and S. aureus DSM2569, respectively. The cultures were grown and treated for 24 h in 1:4 CA-MHB (pH 7.4). […].
For better characterization of the compounds causing the strongest regrowth delay, we performed the regrowth step of the dilution-regrowth experiments on a plate reader, measuring the OD600 at 20-min intervals for over 20 h instead of using an endpoint measurement. This approach allowed us to capture the time when cultures reached a threshold optical density (start-growth-time, SGT[15]).
Overnight cultures of UPEC, P. aeruginosa and S. aureus were grown in test tubes containing 3 ml of LB broth (~16 h), then diluted 1:100 into either 1:4 diluted CA-MHB medium buffered with 40 mM HEPES (pH 7.4) or, in case of UPEC, into LPM medium[25] supplemented with 49 µM MgCl2 and buffered with 30 mM MES (pH 5.5). The cultures were incubated for 24 h in non-baffled Erlenmeyer flasks at 37 °C with shaking at 200 rpm.
For P. aeruginosa and S. aureus, dose–response analysis was conducted in 96-well plates with a 200 μl assay volume, following the procedure used for screening assay validation experiments. Aliquots of the 39 compounds active against non-growing UPEC were obtained from SelleckChem and MedChem Express. Stock solutions were prepared and stored according to the manufacturers’ instructions, then diluted in 10% DMSO before use. Cultures were incubated for 24 h in 1:4 diluted CA-MHB medium under the same conditions used for UPEC cultivation. In preliminary experiments, each compound was tested at a concentration of 20 μM in the dilution-regrowth assay with 4 technical replicates. Regrowth was monitored using a microplate reader at 37 °C with continuous shaking, and OD600 was recorded every 20 min. The time at which OD600 exceeded the threshold of 0.12 was recorded as the Start_Growth-Time.
The statistical analysis of all data, as well as EC50 and IC50 determination, was conducted using GraphPad Prism 10.2.3. Statistical significance of the drug effects was assessed using a one-way ANOVA followed by Dunnett’s test, comparing each treatment to the drug-free control. Statistical significance of the differences in chemical characteristics between the hit compounds and the Prestwick library was assessed using a Mann–Whitney test. Statistical significance was set at P ≤ 0.05. A five-parameter logistic equation was used for asymmetric sigmoidal curve fitting and for EC50 and IC50 determination. The Venn diagram in Fig. 1F was prepared using BioVenn web application. Characteristics of the chemical and physical properties of Prestwick library compounds were obtained from Supplementary Table S1 from reference. Characteristics of the hit compounds not included in the Prestwick library were retrieved from the PubChem database.

[2] = Escherichia coli, E. coli, LPM pH 5.5, read-out: MIC
[3] = Escherichia coli, E. coli, pH 7.4, CA-MHB, read-out: MIC (μM) CA-MHB
[4] = Pseudomonas aeruginosa, DSM1117, 1:4 diluted CA-MHB pH 7.4, read-out: MIC (μM) 1:4 CA-MHB
[5] = Pseudomonas aeruginosa, DSM1117, CA-MHB pH 7.4, read-out: MIC (μM) CA-MHB
[6] = Pseudomonas aeruginosa, DSM1117

Compound | MIC (E. coli CFT073 (UPEC); [2]) | MIC (E. coli CFT073 (UPEC); [3]) | MIC (P. aeruginosa DSM1117; [4]) | MIC (P. aeruginosa DSM1117; [5]) | MIC (S. aureus DSM2569; Staphylococcus aureus, DSM2569) | EC50 [1, 6] | Regrowth, OD600 at 6h or 8h after dilution into drug-free medium ([1]; concentration 2.5) | other results
CC1Sc2c(C(=O)O)c(=O)c3cc(F)c(N4CCNCC4)cc3n21 (centres unmarked) [Ulifloxacin] | 0.125 µM (≈ 0.0437 µg/mL) | 0.025 µM (≈ 0.00873 µg/mL) | 0.5 µM (≈ 0.175 µg/mL) | 0.5 µM (≈ 0.175 µg/mL) | 1 µM (≈ 0.349 µg/mL) | 82 nM | – | –
CO[C@H]1/C=C/O[C@@]2(C)Oc3c(C)c(O)c4c(c3C2=O)C2=NC3(CCN(CC(C)C)CC3)NC2=C(NC(=O)/C(C)=C\C=C\[C@H](C)[C@H](O)[C@@H](C)[C@@H](O)[C@@H](C)[C@H](OC(C)=O)[C@@H]1C)C4=O [Rifabutin] | 2 µM (≈ 1.69 µg/mL) | 8 µM (≈ 6.78 µg/mL) | 10 µM (≈ 8.47 µg/mL) | 40 µM (≈ 33.9 µg/mL) | 0.025 µM (≈ 0.0212 µg/mL) | 942 nM | – | MIC (E. coli CFT073 (UPEC); Escherichia coli, E. coli, pH 7.4, 1:4 diluted CA-MHB, read-out: MIC (μM) 1:4 CA-MHB): 0.625 µM (≈ 0.529 µg/mL); Regrowth: OD600 after dilution into drug-free medium (mean) ([1]; concentration 0.1): 0.637; Regrowth: OD600 after dilution into drug-free medium (mean) ([1]; concentration 0.5): 0.579; Regrowth: OD600 after dilution into drug-free medium (mean) ([1]; concentration 2.5): 0.109; Regrowth: OD600 after dilution into drug-free medium (mean) ([1]; concentration 10): 0.093
Cc1oc(=O)oc1CN1CCN(c2cc3c(cc2F)c(=O)c(C(=O)O)c2n3C(C)S2)CC1 (centres unmarked) [Prulifloxacin] | 0.125 µM (≈ 0.0577 µg/mL) | 0.025 µM (≈ 0.0115 µg/mL) | 1 µM (≈ 0.461 µg/mL) | 1 µM (≈ 0.461 µg/mL) | 4 µM (≈ 1.85 µg/mL) | 97 nM | 0.094 | Regrowth, OD600 at 6h or 8h after dilution into drug-free medium ([1]; concentration 10): 0.095
CN1C[C@@H]2C[C@H]1CN2c1cc2c(cc1F)c(=O)c(C(=O)O)cn2C1CC1 [Danofloxacin] | – | 0.125 µM (≈ 0.0447 µg/mL) | 4 µM (≈ 1.43 µg/mL) | 4 µM (≈ 1.43 µg/mL) | 0.5 µM (≈ 0.179 µg/mL) | 604 nM | – | –
COc1c(N2C[C@@H]3CCCN[C@@H]3C2)c(F)cc2c(=O)c(C(=O)O)cn(C3CC3)c12 [Moxifloxacin] | – | 0.125 µM (≈ 0.0502 µg/mL) | – | 8 µM (≈ 3.21 µg/mL) | 0.125 µM (≈ 0.0502 µg/mL) | 264 nM | 0.094 | Regrowth, OD600 at 6h or 8h after dilution into drug-free medium ([1]; concentration 0.1): 0.549; Regrowth, OD600 at 6h or 8h after dilution into drug-free medium ([1]; concentration 0.5): 0.215; Regrowth, OD600 at 6h or 8h after dilution into drug-free medium ([1]; concentration 10): 0.093
CCCCCCCCN=c1ccn(CCCCCCCCCCn2ccc(=NCCCCCCCC)cc2)cc1 [Octenidine] | 0.5 µM (≈ 0.275 µg/mL) | 1 µM (≈ 0.551 µg/mL) | – | 4 µM (≈ 2.2 µg/mL) | 1 µM (≈ 0.551 µg/mL) | 9990 nM | 0.656 | Regrowth, OD600 at 6h or 8h after dilution into drug-free medium ([1]; concentration 0.1): 0.666; Regrowth, OD600 at 6h or 8h after dilution into drug-free medium ([1]; concentration 0.5): 0.602; Regrowth, OD600 at 6h or 8h after dilution into drug-free medium (average) ([1]; drug concentration 10): 0.533
C[C@H]1NCc2cc(-c3ccc4c(=O)c(C(=O)O)cn(C5CC5)c4c3OC(F)F)ccc21 [Garenoxacin] | 0.125 µM (≈ 0.0533 µg/mL) | 0.125 µM (≈ 0.0533 µg/mL) | 4 µM (≈ 1.71 µg/mL) | 4 µM (≈ 1.71 µg/mL) | 0.125 µM (≈ 0.0533 µg/mL) | 978 nM | – | –
CO/N=C1\CN(c2nc3c(cc2F)c(=O)c(C(=O)O)cn3C2CC2)CC1CN (centres unmarked) [Gemifloxacin] | 0.25 µM (≈ 0.0973 µg/mL) | 0.025 µM (≈ 0.00973 µg/mL) | 2 µM (≈ 0.779 µg/mL) | 1 µM (≈ 0.389 µg/mL) | 0.125 µM (≈ 0.0487 µg/mL) | 165 nM | 0.091 | Regrowth, OD600 at 6h or 8h after dilution into drug-free medium ([1]; concentration 0.1): 0.486; Regrowth, OD600 at 6h or 8h after dilution into drug-free medium ([1]; concentration 0.5): 0.138; Regrowth, OD600 at 6h or 8h after dilution into drug-free medium ([1]; concentration 10): 0.090
O=C(O)c1cn(-c2ccc(F)cc2)c2cc(N3CCNCC3)c(F)cc2c1=O [Sarafloxacin] | 0.5 µM (≈ 0.193 µg/mL) | 0.05 µM (≈ 0.0193 µg/mL) | 2 µM (≈ 0.771 µg/mL) | 2 µM (≈ 0.771 µg/mL) | 1 µM (≈ 0.385 µg/mL) | 216 nM | – | –
N[C@@H]1CCCCN(c2c(F)cc3c(=O)c(C(=O)O)cn(C4CC4)c3c2Cl)C1 [Besifloxacin] | – | 0.25 µM (≈ 0.0985 µg/mL) | 8 µM (≈ 3.15 µg/mL) | 4 µM (≈ 1.58 µg/mL) | 0.25 µM (≈ 0.0985 µg/mL) | 266 nM | 0.091 | increase of MIC in diluted CA-MHB versus CA-MHB (P. aeruginosa DSM1117): twofold; Regrowth, OD600 at 6h or 8h after dilution into drug-free medium ([1]; concentration 0.1): 0.563; Regrowth, OD600 at 6h or 8h after dilution into drug-free medium ([1]; concentration 0.5): 0.201; Regrowth, OD600 at 6h or 8h after dilution into drug-free medium ([1]; concentration 10): 0.090
N[C@@H]1CN(c2c(F)cc3c(=O)c(C(=O)O)cn([C@@H]4C[C@@H]4F)c3c2Cl)CC12CC2 [Sitafloxacin] | – | – | – | – | – | – | – | MIC (E. coli CFT073 (UPEC); E. coli, LPM pH 5.5, read-out: MIC): 0.5 µM (≈ 0.205 µg/mL); MIC (E. coli CFT073 (UPEC); E. coli, pH 7.4, CA-MHB, read-out: MIC (μM) CA-MHB): 0.025 µM (≈ 0.0102 µg/mL); MIC (P. aeruginosa DSM1117; 1:4 diluted CA-MHB pH 7.4, read-out: MIC (μM) 1:4 CA-MHB): 0.5 µM (≈ 0.205 µg/mL); MIC (P. aeruginosa DSM1117; CA-MHB pH 7.4, read-out: MIC (μM) CA-MHB): 0.5 µM (≈ 0.205 µg/mL); MIC (S. aureus DSM2569): 0.125 µM (≈ 0.0512 µg/mL); EC50 [1]: 54 nM
NC1CCN(c2nc3c(cc2F)c(=O)c(C(=O)O)cn3-c2ccc(F)cc2F)C1 (centres unmarked) [Tosufloxacin] | 0.125 µM (≈ 0.0505 µg/mL) | 0.05 µM (≈ 0.0202 µg/mL) | – | 1 µM (≈ 0.404 µg/mL) | 0.25 µM (≈ 0.101 µg/mL) | 237 nM | – | –
COc1c(N2CCNC(C)C2)c(F)cc2c(=O)c(C(=O)O)cn(C3CC3)c12 (centres unmarked) [Gatifloxacin] | – | 0.125 µM (≈ 0.0469 µg/mL) | 4 µM (≈ 1.5 µg/mL) | 4 µM (≈ 1.5 µg/mL) | 0.5 µM (≈ 0.188 µg/mL) | 182 nM | – | –
NC1CCN(c2c(F)cc3c(=O)c(C(=O)O)cn(C4CC4)c3c2Cl)C1 (centres unmarked) [Clinafloxacin] | – | 0.0125 µM (≈ 0.00457 µg/mL) | 0.25 µM (≈ 0.0914 µg/mL) | 0.5 µM (≈ 0.183 µg/mL) | 0.125 µM (≈ 0.0457 µg/mL) | 41 nM | – | MIC (E. coli CFT073 (UPEC); Escherichia coli, see Dataset 1, read-out: MIC (lowest measured MIC for all hit compounds)): 0.0125 µM (≈ 0.00457 µg/mL)
